Literature values in article PMC6151660 (Molecules : A Journal of Synthetic Chemistry and Natural …, 2017).

System: M. tuberculosis, H37Rv
Conditions: cited from earlier work

For `CO[C@@H]1[C@@H](OC(N)=O)[C@@H](O)[C@H](Oc2ccc3c(O)c(NC(=O)c4ccc(O)c(CC=C(C)C)c4)c(=O)oc3c2C)OC1(C)C` [Novobiocin], the MIC is given as “approximately 6.5 µM”.
